Assay results taken from patent US11739098B2 (BRISTOL-MYERS SQUIBB COMPANY, priority 2017, dated 2023).

Legend:
Format in all cases: cell-based
[1] = molecular target: T1, human TLR8 (Homo sapiens, UniProt Q9NR97); assay: TLR8 inhibition reporter assay (HEK-Blue cells, SEAP reporter, R848 stimulation); details: HEK-Blue cells overexpressing human TLR8, SEAP reporter, R848 15.9 μM
T1 construct: host or cells: HEK-Blue cells (HEK293-derived reporter line)
T1 sequence (Q9NR97 27-1041): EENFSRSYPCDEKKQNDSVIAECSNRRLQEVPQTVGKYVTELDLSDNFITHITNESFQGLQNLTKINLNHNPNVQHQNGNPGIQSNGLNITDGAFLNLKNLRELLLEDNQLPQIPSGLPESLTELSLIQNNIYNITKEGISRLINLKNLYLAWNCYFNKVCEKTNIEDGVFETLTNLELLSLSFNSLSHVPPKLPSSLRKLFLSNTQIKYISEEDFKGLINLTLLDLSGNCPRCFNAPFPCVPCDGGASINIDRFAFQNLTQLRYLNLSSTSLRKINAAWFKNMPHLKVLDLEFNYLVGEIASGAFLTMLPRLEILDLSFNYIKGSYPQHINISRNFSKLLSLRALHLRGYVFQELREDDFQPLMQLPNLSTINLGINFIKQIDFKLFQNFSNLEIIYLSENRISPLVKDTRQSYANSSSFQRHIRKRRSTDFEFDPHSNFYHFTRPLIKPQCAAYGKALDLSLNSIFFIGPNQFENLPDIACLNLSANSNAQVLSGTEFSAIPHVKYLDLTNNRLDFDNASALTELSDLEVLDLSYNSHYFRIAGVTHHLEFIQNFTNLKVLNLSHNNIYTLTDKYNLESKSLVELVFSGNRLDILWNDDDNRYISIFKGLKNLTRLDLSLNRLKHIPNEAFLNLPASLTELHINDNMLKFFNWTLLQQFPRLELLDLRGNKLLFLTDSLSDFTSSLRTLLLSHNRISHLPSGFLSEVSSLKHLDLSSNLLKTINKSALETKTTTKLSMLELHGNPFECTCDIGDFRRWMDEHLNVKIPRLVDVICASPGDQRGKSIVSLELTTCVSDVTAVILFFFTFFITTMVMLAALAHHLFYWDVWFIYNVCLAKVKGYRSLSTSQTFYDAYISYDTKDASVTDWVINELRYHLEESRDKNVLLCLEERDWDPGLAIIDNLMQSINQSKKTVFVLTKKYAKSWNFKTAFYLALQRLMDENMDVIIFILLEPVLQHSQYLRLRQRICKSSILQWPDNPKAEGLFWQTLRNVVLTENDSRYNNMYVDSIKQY
Summary of the method: (§1)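 HEK-Blue cells overexpressing human TLR7, TLR8 or TLR9 (NF-κB/AP-1-driven SEAP) pre-treated 30 min at room temperature with compound (0.05 nM–50 μM), then stimulated with gardiquimod 7.5 μM (TLR7), R848 15.9 μM (TLR8) or ODN2006 5 nM (TLR9). SEAP read colorimetrically after 22 h at 37 °C; % inhibition calculated.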

[2] = molecular target: T2, human TLR7 (Homo sapiens, UniProt Q9NYK1); assay: TLR7 inhibition reporter assay (HEK-Blue cells, SEAP reporter, gardiquimod stimulation); details: HEK-Blue cells overexpressing human TLR7, SEAP reporter, gardiquimod 7.5 μM
T2 construct: host or cells: HEK-Blue cells (HEK293-derived reporter line)
T2 sequence (Q9NYK1 27-1049): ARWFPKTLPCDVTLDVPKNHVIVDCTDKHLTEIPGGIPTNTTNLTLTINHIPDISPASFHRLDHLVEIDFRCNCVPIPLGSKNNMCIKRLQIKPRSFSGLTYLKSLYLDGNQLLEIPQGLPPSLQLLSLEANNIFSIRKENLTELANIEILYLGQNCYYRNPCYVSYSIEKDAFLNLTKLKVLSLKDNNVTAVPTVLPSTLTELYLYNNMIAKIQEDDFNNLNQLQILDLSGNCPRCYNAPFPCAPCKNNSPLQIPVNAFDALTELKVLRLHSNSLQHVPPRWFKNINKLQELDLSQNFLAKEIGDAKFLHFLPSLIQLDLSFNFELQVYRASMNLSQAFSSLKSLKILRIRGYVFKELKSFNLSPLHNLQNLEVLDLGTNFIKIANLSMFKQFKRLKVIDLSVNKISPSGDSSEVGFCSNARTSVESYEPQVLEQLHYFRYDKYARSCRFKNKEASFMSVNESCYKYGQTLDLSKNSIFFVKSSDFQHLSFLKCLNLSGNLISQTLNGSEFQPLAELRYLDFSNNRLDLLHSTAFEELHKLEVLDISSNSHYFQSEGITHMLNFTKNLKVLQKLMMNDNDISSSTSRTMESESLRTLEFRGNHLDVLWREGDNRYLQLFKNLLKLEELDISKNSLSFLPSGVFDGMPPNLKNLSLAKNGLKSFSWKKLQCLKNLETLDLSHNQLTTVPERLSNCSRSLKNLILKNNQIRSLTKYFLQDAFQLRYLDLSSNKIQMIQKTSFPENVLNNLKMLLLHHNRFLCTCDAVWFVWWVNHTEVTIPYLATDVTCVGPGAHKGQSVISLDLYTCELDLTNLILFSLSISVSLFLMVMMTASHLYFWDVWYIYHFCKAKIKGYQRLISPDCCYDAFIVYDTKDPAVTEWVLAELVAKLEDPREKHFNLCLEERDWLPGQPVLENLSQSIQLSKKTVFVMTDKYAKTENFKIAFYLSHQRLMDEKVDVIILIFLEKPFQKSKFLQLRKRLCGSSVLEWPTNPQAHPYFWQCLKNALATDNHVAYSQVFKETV
Summary of the method: as §1

[3] = molecular target: T3, human TLR9 (Homo sapiens, UniProt Q9NR96); assay: TLR9 inhibition reporter assay (HEK-Blue cells, SEAP reporter, ODN2006 stimulation); details: HEK-Blue cells overexpressing human TLR9, SEAP reporter, ODN2006 5 nM
T3 construct: host or cells: HEK-Blue cells (HEK293-derived reporter line)
T3 sequence (Q9NR96 26-1032): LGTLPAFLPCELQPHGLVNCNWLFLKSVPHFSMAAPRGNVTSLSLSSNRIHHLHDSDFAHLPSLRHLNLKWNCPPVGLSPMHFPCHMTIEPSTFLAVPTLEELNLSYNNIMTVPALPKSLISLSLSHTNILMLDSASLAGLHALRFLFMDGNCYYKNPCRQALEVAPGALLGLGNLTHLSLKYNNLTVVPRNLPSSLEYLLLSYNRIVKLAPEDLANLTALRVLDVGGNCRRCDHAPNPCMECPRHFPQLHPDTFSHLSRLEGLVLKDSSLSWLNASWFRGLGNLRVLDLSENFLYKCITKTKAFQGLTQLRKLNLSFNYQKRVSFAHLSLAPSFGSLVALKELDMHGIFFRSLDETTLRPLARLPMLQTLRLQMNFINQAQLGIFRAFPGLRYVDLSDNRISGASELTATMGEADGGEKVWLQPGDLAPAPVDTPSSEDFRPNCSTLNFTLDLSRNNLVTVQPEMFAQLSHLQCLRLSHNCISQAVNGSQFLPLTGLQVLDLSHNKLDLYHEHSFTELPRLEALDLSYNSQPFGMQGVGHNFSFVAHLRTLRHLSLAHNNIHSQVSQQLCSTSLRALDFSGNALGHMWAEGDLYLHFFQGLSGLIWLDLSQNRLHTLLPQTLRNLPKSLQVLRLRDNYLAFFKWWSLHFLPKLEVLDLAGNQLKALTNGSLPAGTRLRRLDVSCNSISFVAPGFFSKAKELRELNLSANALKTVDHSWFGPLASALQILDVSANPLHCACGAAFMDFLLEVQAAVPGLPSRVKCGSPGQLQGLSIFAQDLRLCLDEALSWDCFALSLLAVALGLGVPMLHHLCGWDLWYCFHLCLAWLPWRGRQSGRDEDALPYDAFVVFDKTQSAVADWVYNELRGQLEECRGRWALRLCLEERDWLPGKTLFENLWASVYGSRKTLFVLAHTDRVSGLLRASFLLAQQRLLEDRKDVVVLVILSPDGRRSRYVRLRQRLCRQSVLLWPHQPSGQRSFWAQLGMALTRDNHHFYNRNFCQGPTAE
Summary of the method: as §1

| SMILES | IC50 [1] [µM] | IC50 [2] [µM] | IC50 [3] [µM] |
| --- | --- | --- | --- |
| CC(C)c1c(-c2ccnc3[nH]ncc23)[nH]c2cc(C(F)(F)F)c(C3CCNCC3)cc12 [Example 249, 4-(3-isopropyl-5-(piperidin-4-yl)-6-(trifluoromethyl)-1H-indol-2-yl)-1H-pyrazolo[3,4-b]pyridine] | 0.1 to 1 | < 0.1 | 1 to 50 |
| CC(C)c1c(-c2ccnc3[nH]ncc23)[nH]c2ccc(C3CCNCC3)cc12 [Example 230, 4-(3-isopropyl-5-(piperidin-4-yl)-1H-indol-2-yl)-1H-pyrazolo[3,4-b]pyridine] | < 0.1 | < 0.1 | 0.1 to 1 |
| Cc1cn2cc(-c3[nH]c4ccc(C5CCN(C(=O)CN(C)C)CC5)cc4c3C(C)C)cc(C(F)(F)F)c2n1 [Example 511, 2-(dimethylamino)-1-(4-(3-isopropyl-2-(2-methyl-8-(trifluoromethyl)imidazo[1,2-a]pyridin-6-yl)-1H-indol-5-yl)piperidin-1-yl)ethan-1-one] | 0.1 to 1 | < 0.1 | 0.1 to 1 |
| CCc1c(-c2cccc3[nH]ncc23)[nH]c2ccc(C3CCNCC3)cc12 [Example 182, 4-(3-ethyl-5-(piperidin-4-yl)-1H-indol-2-yl)-1H-indazole] | 1 to 50 | 1 to 50 | 1 to 50 |
| Cc1c[nH]c2nccc(-c3[nH]c4ccc(C5CCNCC5)cc4c3C(C)C)c12 [Example 215, 4-(3-isopropyl-5-(piperidin-4-yl)-1H-indol-2-yl)-3-methyl-1H-pyrrolo[2,3-b]pyridine] | 0.1 to 1 | 0.1 to 1 | 1 to 50 |
| Cc1nnn2ccc(-c3[nH]c4ccc(C5CCN(C(=O)CN(C)C)CC5)cc4c3C(C)C)cc12 [Example 487, 2-(dimethylamino)-1-(4-(3-isopropyl-2-(3-methyl-[1,2,3]triazolo[1,5-a]pyridin-5-yl)-1H-indol-5-yl)piperidin-1-yl)ethan-1-one] | < 0.1 | < 0.1 | 1 to 50 |
| CCOc1cc(-c2[nH]c3ccc(C4CCN(C(=O)CN(C)C)CC4)cc3c2C(C)C)cc2ncnn12 [Example 498, 2-(dimethylamino)-1-(4-(2-(5-ethoxy-[1,2,4]triazolo[1,5-a]pyridin-7-yl)-3-isopropyl-1H-indol-5-yl)piperidin-1-yl)ethan-1-one] | < 0.1 | < 0.1 | 0.1 to 1 |
| CC(C)c1c(-c2cnc3nccn3c2)[nH]c2ccc(C3CCNCC3)cc12 [Example 200, 6-(3-isopropyl-5-(piperidin-4-yl)-1H-indol-2-yl)imidazo[1,2-a]pyrimidine] | 0.1 to 1 | 0.1 to 1 | 0.1 to 1 |

Now from value to compound:

| IC50 [1] [µM] | IC50 [2] [µM] | IC50 [3] [µM] | SMILES |
| --- | --- | --- | --- |
| > 3.13 | < 0.1 | 1 to 50 | Cc1nc2cc(-c3[nH]c4ccc(C5CCN(C(=O)CC(C)(C)O)CC5)cc4c3C(C)C)ccn2n1 [Example 601, 3-hydroxy-1-(4-(3-isopropyl-2-(2-methyl-[1,2,4]triazolo[1,5-a]pyridin-7-yl)-1H-indol-5-yl)piperidin-1-yl)-3-methylbutan-1-one] |
| < 0.1 | < 0.1 | 1 to 50 | Cc1cc2nnnn2cc1-c1[nH]c2ccc(C3CCN(Cc4ncn(C)n4)CC3)cc2c1C(C)C [Example 886, 6-(3-isopropyl-5-(1-((1-methyl-1H-1,2,4-triazol-3-yl)methyl)piperidin-4-yl)-1H-indol-2-yl)-7-methyltetrazolo[1,5-a]pyridine] |
| 0.1 to 1 | < 0.1 | 0.1 to 1 | Cc1cn2cc(-c3[nH]c4ccc(C5CCN(C(C)C)CC5)cc4c3C(C)C)ccc2n1 [Example 945, 6-(3-isopropyl-5-(1-isopropylpiperidin-4-yl)-1H-indol-2-yl)-2-methylimidazo[1,2-a]pyridine] |
| < 0.1 | < 0.1 | 1 to 50 | CCCN1CCC(c2ccc3[nH]c(-c4cc(OC)c5ncnn5n4)c(C(C)C)c3c2)CC1 [Example 952, 6-(3-isopropyl-5-(1-propylpiperidin-4-yl)-1H-indol-2-yl)-8-methoxy-[1,2,4]triazolo[1,5-b]pyridazine] |
| < 0.1 | < 0.1 | 1 to 50 | Cc1nnn2ccc(-c3[nH]c4ccc(C5CCN(C6CCS(=O)(=O)CC6)CC5)cc4c3C(C)C)cc12 [Example 792, 4-(4-(3-isopropyl-2-(3-methyl-[1,2,3]triazolo[1,5-a]pyridin-5-yl)-1H-indol-5-yl)piperidin-1-yl)tetrahydro-2H-thiopyran 1,1-dioxide] |
| < 0.1 | < 0.1 | 1 to 50 | CC(C)c1c(-c2ccnc3[nH]ncc23)[nH]c2ccc(C3CCN(C(=O)CN4CCC[C@H]4C(N)=O)CC3)cc12 [Example 584, (S)-1-(2-(4-(3-isopropyl-2-(1H-pyrazolo[3,4-b]pyridin-4-yl)-1H-indol-5-yl)piperidin-1-yl)-2-oxoethyl)pyrrolidine-2-carboxamide] |
